The results in this text go back to patent US20230351587A1, “METHODS AND SYSTEMS FOR PREDICTING NEURODEGENERATIVE DISEASE STATE” (New York Stem Cell Foundation, Inc., priority 2020, published 2023).

The test system of the test is healthy, LRRK2, and sporadic PD cells. Nature of the test: Relative distance between treated cell groups and 0.16% DMSO control (morphological profiles). The conditions noted are these: vs 0.16% DMSO; tile embeddings, single cell embeddings and feature vector models; three increasing doses; FIGS. 13A-13C. The class given is cell-based, human. The procedure: In this example, the same automated platform as described above in Examples 1 and 2 was implemented to morphologically profile large collections of cells that were treated using any of a number of perturbations. Example perturbations include bafilomycin, carbonyl cyanide m-chlorophenyl hydrazone (CCCP), MG312, rotenone, valinomycin as well as control groups (untreated and 0.16% DMSO). Specifically, healthy or PD cells of known subtype (e.g., LRKK2 subtype or sporadic subtype) were cultured in vitro and treated with varying doses of the perturbations. For example, for bafilomycin, treatments included 15.63 nM, 31.25 nM, and 62.5 nM bafilomycin. For CCCP, the treatments included 390.5 nM, 781 nM, and 1562 nM. For MG312, the treatments included 234.38 nM, 468.75 nM, and 937.5 nM. For rotenone, the treatments included 7.81 nM, 15.63 nM, and 31.25 nM. For valinomycin, the treatments included 3.91 nM, 7.81 nM, and 15.63 nM.
Following in vitro treatment of healthy cells and PD subtype cells using the aforementioned concentrations of perturbagens, the cells were imaged using the automated imaging platform and subsequently analyzed using predictive models. In particular, three predictive models were implemented: 1) predictive model including tile embeddings, 2) predictive model including single cell embeddings, and 3) predictive model including extracted features (e.g., CellProfiler features). […]

For `CO/C1=C\C(C)=C\[C@@H](C)[C@@H](O)[C@@H](C)C/C(C)=C/C=C/[C@H](OC)[C@@H]([C@@H](C)[C@@H](O)[C@H](C)[C@@]2(O)C[C@@H](O)[C@H](C)[C@@H](C(C)C)O2)OC1=O` [Bafilomycin, bafilomycin], the “relative distance between treated cell groups in comparison to controls” value is “increase in distance in response to increasing dose”.
